Experimental data published in patent publication US5266594A, “Inhibitors of nitric oxide synthase and use thereof to prevent glutamate neurotoxicity” (priority 1992, dated 1993).
pEC50, pKi: −log10 of the molar value. “Also recorded” adds a separate entry of the source. Read-outs that look alike come from different tables or passages of the source.

Assays:
cGMP formation = cGMP formation in cortical cell cultures (RIA); type: cell-based, rat; conditions: 300 μM NMDA (plus 10 μM glycine), 1 minute; 100 μM NO2 Arg, 1 mM L-Arg, 100 units of SOD, 500 μM Hb
Protocol: Primary dissociated cell cultures were prepared from fetal rats (13-to 14-day gestation for cortex and caudate-putamen cultures and 19- to 20-day gestation for hippocampal cultures). […] Dissociated cells were plated at a density of 3-4×10^5 cells per well in polyornithine-coated 15-mm multiwell plates. After 4 days the cells were treated with 10 μg of 5-fluoro-2'-deoxyuridine to prevent proliferations of noneuronal cells. Cells were maintained in MEM/5% horse serum/2 mM glutamine in 8% CO2 /humidified atmosphere at 37° C. The medium was changed twice weekly. Mature neurons (3-4 weeks) were used.
For determination of cGMP the cells were washed three times with CSS. […] After ether extraction, cGMP levels were determined by RIA.
Data are means ±SEM (n=6-8).
Data are means ±SEM (n=8-12).

[1] = tested on: brain-endothelial and macrophage NOS; conditions: cited from earlier work
brain NOS = brain NOS activity in cerebellar homogenates after i.p. administration; type: in vivo, rat (Sprague-Dawley)
Protocol: Adult male rats (Sprague-Dawley, 3 per group) were injected intraperitoneally (i.p.) twice daily with 5 mg/kg or 50 mg/kg of NO2 Arg, MeArg, arginine or vehicle twice a day for four consecutive days. The animals were sacrificed by decapitation 14 hours following the last injection.
Cerebellar homogenates were used to determine NOS activity.

NOS protein = test: Western blot of NOS protein in brain extracts after i.p. administration; type: in vivo, rat; conditions: i.p. administration of 5 and 50 mg/kg
Protocol: To determine whether NO2 Arg administration alters levels of NOS protein, Western blot analysis of brain extracts were performed following the i.p. administration of both 5 and 50 mg/kg of NO2 Arg. Soluble cerebellar homogenates (100 μg) were separated on a 7.5% SDS-polyacrylamide gel and transferred to nitrocellulose. Lanes were incubated overnight with affinity purified NOS antibody (1:2500) at room temperature, and bands were visualized with an alkaline phosphatase linked secondary antibody. […] Therefore, the loss of NOS activity following peripheral administration of NO2 Arg is not attributed to inhibition of the synthesis of enzyme protein.

cortical cell cultures = test: cells; type: cell-based, rat; conditions: for pEC50: cortical cultures
Protocol: Primary dissociated cell cultures were prepared from fetal rats (13-to 14-day gestation for cortex and caudate-putamen cultures and 19- to 20-day gestation for hippocampal cultures). The tissue of interest was dissected, incubated for 15 minutes in 0.027% trypsin in Brooks-Logan solution (5% phosphate-buffered saline/0.04M sucrose/10 mM Hepes/0.03M glucose, pH 7.4), and then transferred to modified Eagle's medium (MEM) 10% horse serum/10% fetal bovine serum/2 mM glutamine for trituration. Dissociated cells were plated at a density of 3-4×10^5 cells per well in polyornithine-coated 15-mm multiwell plates. After 4 days the cells were treated with 10 μg of 5-fluoro-2'-deoxyuridine to prevent proliferations of noneuronal cells. Cells were maintained in MEM/5% horse serum/2 mM glutamine in 8% CO2 /humidified atmosphere at 37° C. The medium was changed twice weekly. Mature neurons (3-4 weeks) were used.
Cells were exposed to excitatory amino acids according to the method of Koh and Choi (J. Neurosci. (1988) 8:2153-2163). Before exposure, the cells were washed three times with Tris-buffered control salt solution (CSS), containing 120 mM NaCl/5.4 mM KCl/1.8 mM CaCl2 /25 mM Tris hydrochloride, pH 7.4 at room temperature/15 mM glucose. Brief exposures to glutamate, NMDA (plus 10 μM glycine), quisqualate, and sodium nitroprusside (SNP) were performed for 5 minutes in CSS. The exposure solution was then washed away and replaced by MEM with 21 mM glucose; then the cells were placed in an incubator for 20-24 hour. Long exposures to kainate were performed in MEM/21 mM glucose for 20-24 hour in the incubator. After exposure to the excitatory amino acids, the medium was replaced by CSS/0.4% trypan blue, which stains nonviable cells. Two to four photographs (10-20×) were made of each well, and viable versus nonviable cells were counted. The cytotoxicity data represent 6-24 separate wells assayed per data point, with ≈500-1500 cells counted per well. Neuronal cell injury was also assessed by measuring the release of lactate dehydrogenase by damaged or destroyed cells into the extracellular fluid following drug exposure.
Before initiating cytotoxicity experiments with NOS inhibitors, the potency of NMDA applied for 5 minutes in inducing cell death was evaluated by examining exclusion of 0.4% trypan blue by viable cells or measuring lactate dehydrogenase released by damaged or destroyed cells into the extracellular fluid.
To examine the role of NO in other forms of glutamate neurotoxicity, the effects of NO2 Arg cytotoxicity induced by quisqualate, kainate, and NMDA were compared. […] Data are means ±SEM (n=6-24). Cell death was determined by 0.4% trypan blue exclusion by viable cells.

NOS = conditions: cited from earlier work

Structure (SMILES): N=C(NCCC[C@H](N)C(=O)O)N[N+](=O)[O-] [NO2 Arg, L-N^ω -nitroarginine]
- effect on NMDA stimulation of cGMP formation (cGMP formation): antagonized
- inhibition of brain-endothelial versus macrophage enzyme ([1]; Gross et al. (1990)): weaker inhibitor of the macrophage enzyme
- greater potency in inhibiting brain-endothelial than macrophage NOS ([1]; incubations at 37° C. for about 1/2 hour, 30 min): 10-300 fold
- inhibition of brain NOS (brain NOS; 5 mg/kg i.p. twice daily, four consecutive days, 14 hours after last injection): about 50%
- inhibition of enzyme activity in the brain after peripheral administration (brain NOS; 5 mg/kg, peripheral administration): markedly inhibits enzyme activity in the brain
- inhibition of brain NOS enzyme activity (brain NOS; 50 mg/kg i.p. twice daily, four consecutive days, 14 hours after last injection): 95%
- inhibition of NOS activity, repeated administration for 7 days versus 4 days (brain NOS; 7 days): no greater inhibition of NOS activity than 4 days of treatment
- nature of inhibition of NOS in vivo (brain NOS; FIG. 3, before and after dialysis): irreversible inhibition
- effect of dialysis on enzyme activity (brain NOS; crude supernatant from treated animals dialyzed for 24 hours): only slightly increases enzyme activity
- time for which brain NOS activity does not return to normal levels (brain NOS; following 90% inhibition with 50 mg/kg): at least 5 days
- reduction of enzyme activity (brain NOS; single injection of 50 mg/kg): 50%
- alterations in NOS protein (NOS protein): No alterations in NOS protein were observed
- prevention of neurotoxicity, in words (cortical cell cultures): prevent neurotoxicity in proportion to their relative potencies as NOS inhibitors
- Cell death, % ± SEM (kainate + NO2 Arg) (cortical cell cultures; 100 μM kainate +500 μM NO2 Arg): 87.0 ± 3.2%
- Cell death, % ± SEM (NMDA + NO2 Arg) (cortical cell cultures; 300 μM NMDA + 10 μM glycine +100 μM NO2 Arg): 17.7 ± 3.0%
- Cell death, % ± SEM (NMDA + NO2 Arg + L-Arg) (cortical cell cultures; 300 μM NMDA + 10 μM glycine +100 μM NO2 Arg + 1mM L-Arg): 63.4 ± 5.5%
- effect on NMDA cytotoxicity (photomicrographs, FIG. 4) (cortical cell cultures; 300 μM NMDA plus 10 μM glycine plus 100 NO2 Arg): inhibition of NMDA cytotoxicity
- Cell death, % ± SEM (glutamate + NO2 Arg + L-Arg) (cortical cell cultures; 500 μM glutamate +100 μM NO2 Arg + 1 Mm L-Arg): 48.2 ± 3.2%
- Cell death, % ± SEM (glutamate + NO2 Arg) (cortical cell cultures; 500 μM glutamate +100 μN NO2 Arg): 28.9 ± 6.0%
- Cell death, % ± SEM (quisqualate + NO2 Arg) (cortical cell cultures; 500 μM quisqualate +500 μM NO2 Arg): 51.1 ± 2.4%
- Cell death, % ± SEM (quisqualate + NO2 Arg + L-Arg) (cortical cell cultures; 500 μM quisqualate +500 μM NO2 Arg + mM L-Arg): 66.6 ± 5.3%
- inhibition at 100 µM (cortical cell cultures; Rattus norvegicus, 100 μM NO2 Arg applied simultaneously with NMDA, read-out: reduction of NMDA-induced cell death): 70%
- pEC50 (cortical cell cultures; Rattus norvegicus, NMDA and related excitatory amino acids, read-out: EC50 for preventing neurotoxicity elicited by N-methyl-D-aspartate): 4.70
- pEC50 (cortical cell cultures; Rattus norvegicus, NMDA, read-out: concentration giving 50% prevention of NMDA-induced cell death): ~4.70
- protection against kainate-induced cell death (cortical cell cultures; kainate): no protection against kainate-induced cell death
- protection against quisqualate-induced cell death (cortical cell cultures; quisqualate): A portion of cell death elicited by quisqualate is prevented; also recorded: higher concentrations of NO2 Arg are required than with NMDA toxicity
- pKi (NOS; Dwyer et al. (1991), read-out: Ki, inhibition of NOS activity of purified enzyme preparations): 6.70
- mode of inhibition of NOS (NOS; Moore (1990)): competitive inhibitor of NOS
